Experimental data from US20180099931A1 (AbbVie S.à.r.l., priority 2016, published 2018).
Like-named read-outs stand apart in the source and are kept apart here.

Biological target: T1, F508delCFTR (Homo sapiens, UniProt P13569, DEL508-508)
T1 construct: expressed in transfected cells; host or cells: CFBE41o- human lung-derived epithelial cells (CFBE4lo-F508delCFTR-HRP), doxycycline-inducible
Experiment: Cell Surface Expression-Horse Radish Peroxidase (CSE-HRP) Assay;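 on Maximum % activity (with co-corrector): co-corrector and positive control are both the same reference corrector at 2 µM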;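 on Maximum % activity (without co-corrector): percent of the 2 µM on-plate positive control corrector response above DMSO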
Type: cell-based
Settings: for Maximum % activity (with co-corrector) / Emax: maximum at any tested concentration, normalized to on-plate positive control; for Emax: read-out: Maximum % activity (without co-corrector)
Procedure: Cell Surface Expression-Horse Radish Peroxidase (CSE-HRP) Assay;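 on Maximum % activity (with co-corrector): co-corrector and positive control are both the same reference corrector at 2 µM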;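 on Maximum % activity (without co-corrector): percent of the 2 µM on-plate positive control corrector response above DMSO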
The development was achieved by expressing the F508delCFTR mutation along with a horseradish peroxidase (HRP) in the fourth exofacial loop, and then measuring the HRP activity using luminescence readout from these cells, CFBE4lo-F508delCFTR-HRP, that were incubated overnight with the test corrector compounds, either without or with the co-corrector. […] The test compounds were then added either without or with a co-corrector at the required concentrations and further incubated for 18-24 hours at 33° C. The highest concentration tested was 20 μM with an 8-point concentration response curve using a 3-fold dilution in both the test compound without or with the co-corrector. Three replicate plates were run to determine one EC50. All plates contained negative controls (dimethyl sulfoxide, DMSO) and positive control (2 μM of 3-[(2R,4R)-4-({[1-(2,2-difluoro-1,3-benzodioxol-5-yl)cyclopropyl]carbonyl}amino)-7-methoxy-3,4-dihydro-2H-chromen-2-yl]benzoic acid) as well as on-plate concentration response of the positive control. […] The raw counts from the experiment were analyzed using Accelrys® Assay Explorer v3.3.
1−[3*SDPositive Control+3*SDNegative Control/Absolute(MeanPositive Control−MeanNegative Control)]
wherein “SD” is standard deviation.
The % activity measured at each of the 8 test concentrations of the test compound added either without or with a co-corrector (2 μM of 3-[(2R,4R)-4-({[1-(2,2-difluoro-1,3-benzodioxol-5-yl)cyclopropyl]carbonyl}amino)-7-methoxy-3,4-dihydro-2H-chromen-2-yl]benzoic acid) was normalized to the on-plate positive control using the following formulae:
% activity(Test compound without co-corrector)=[(test compound without co-corrector response−DMSO response)/(positive control response−DMSO response)]*100
% activity(Test compound with co-corrector)=[(test compound with co-corrector response−DMSO response)/(positive control response−DMSO response)]*100
The maximum % activity achieved for the test compound either without or with a co-corrector at any tested concentration is presented in Table 4 along with the respective EC50's calculated using the following general sigmoidal curve with variable Hill slope equation (described as Model 42 in the Accelrys® Assay Explorer v3.3 software):
General sigmoidal curve with concentration, response, top, bottom, EC50 and Hill slope. This model describes a sigmoidal curve with an adjustable baseline, a. The equation can be used to fit curves where response is either increasing or decreasing with respect to the independent variable, “x”.
“x” is a concentration of drug under test. “y” is the response. “a” is the maximum response, and “d” is the minimum response “c” is the inflection point (EC50) for the curve. That is, “y” is halfway between the lower and upper asymptotes when x=c. “b” is the slope-factor or Hill coefficient. The sign of b is positive when the response increases with increasing dose and is negative when the response decreases with increasing dose (inhibition).

[1] = CSE-HRP, test compound without co-corrector, read-out: EC50 (without co-corrector)
[2] = CSE-HRP, with co-corrector (2 μM of 3-[(2R,4R)-4-({[1-(2,2-difluoro-1,3-benzodioxol-5-yl)cyclopropyl]carbonyl}amino)-7-methoxy-3,4-dihydro-2H-chromen-2-yl]benzoic acid), read-out: EC50 (with co-corrector)
[3] = CSE-HRP, with co-corrector (2 μM)
[4] = test compound without co-corrector
[5] = test compound without co-corrector, read-out: EC50 (without co-corrector)
[6] = with co-corrector (2 μM of 3-[(2R,4R)-4-({[1-(2,2-difluoro-1,3-benzodioxol-5-yl)cyclopropyl]carbonyl}amino)-7-methoxy-3,4-dihydro-2H-chromen-2-yl]benzoic acid)
[7] = with co-corrector (2 μM of 3-[(2R,4R)-4-({[1-(2,2-difluoro-1,3-benzodioxol-5-yl)cyclopropyl]carbonyl}amino)-7-methoxy-3,4-dihydro-2H-chromen-2-yl]benzoic acid), read-out: EC50 (with co-corrector)

T1 sequence (P13569 with tags, fused parts or gaps DEL508-508): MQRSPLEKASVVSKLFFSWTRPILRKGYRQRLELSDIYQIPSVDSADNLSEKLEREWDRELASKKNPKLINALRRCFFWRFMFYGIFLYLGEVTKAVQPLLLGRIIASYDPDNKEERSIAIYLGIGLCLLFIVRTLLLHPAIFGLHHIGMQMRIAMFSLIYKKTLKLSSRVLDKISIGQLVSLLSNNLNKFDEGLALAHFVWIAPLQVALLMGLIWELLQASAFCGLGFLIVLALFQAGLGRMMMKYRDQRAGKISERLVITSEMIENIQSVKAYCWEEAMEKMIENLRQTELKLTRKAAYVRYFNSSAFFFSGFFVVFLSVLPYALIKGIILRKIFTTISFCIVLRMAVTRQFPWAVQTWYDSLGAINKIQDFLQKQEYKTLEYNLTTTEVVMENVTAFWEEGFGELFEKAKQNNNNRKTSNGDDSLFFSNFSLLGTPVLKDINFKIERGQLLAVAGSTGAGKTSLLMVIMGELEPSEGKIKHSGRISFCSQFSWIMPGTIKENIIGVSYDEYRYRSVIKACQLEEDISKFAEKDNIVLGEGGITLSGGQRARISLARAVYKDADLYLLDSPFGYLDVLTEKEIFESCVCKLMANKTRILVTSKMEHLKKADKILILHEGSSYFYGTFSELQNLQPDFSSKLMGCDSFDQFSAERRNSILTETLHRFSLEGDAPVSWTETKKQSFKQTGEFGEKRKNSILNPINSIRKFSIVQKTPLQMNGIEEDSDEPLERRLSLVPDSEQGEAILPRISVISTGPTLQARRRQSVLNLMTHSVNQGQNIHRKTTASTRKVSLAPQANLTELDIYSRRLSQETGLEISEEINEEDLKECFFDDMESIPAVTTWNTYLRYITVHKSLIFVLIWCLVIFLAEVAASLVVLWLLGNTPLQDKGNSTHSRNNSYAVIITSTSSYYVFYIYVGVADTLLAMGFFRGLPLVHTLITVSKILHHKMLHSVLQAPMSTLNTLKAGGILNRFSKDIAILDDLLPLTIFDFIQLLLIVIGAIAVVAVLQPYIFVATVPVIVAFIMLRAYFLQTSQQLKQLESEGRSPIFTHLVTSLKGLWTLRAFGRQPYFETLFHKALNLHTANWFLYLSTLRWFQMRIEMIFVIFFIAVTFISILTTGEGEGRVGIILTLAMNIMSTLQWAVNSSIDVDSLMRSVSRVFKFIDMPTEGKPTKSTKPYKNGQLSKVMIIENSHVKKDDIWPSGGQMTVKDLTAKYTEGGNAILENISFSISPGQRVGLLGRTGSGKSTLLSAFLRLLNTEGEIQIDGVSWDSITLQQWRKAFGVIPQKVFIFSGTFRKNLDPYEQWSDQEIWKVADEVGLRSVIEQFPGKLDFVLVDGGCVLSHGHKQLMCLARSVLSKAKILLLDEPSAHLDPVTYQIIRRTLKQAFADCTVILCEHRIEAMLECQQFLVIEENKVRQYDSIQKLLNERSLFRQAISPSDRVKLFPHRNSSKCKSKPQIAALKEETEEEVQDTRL

Compound | EC50 [1] | EC50 [2] | Maximum % activity (with co-corrector) [3] | Emax (CSE-HRP, without co-corrector) | Emax [4] | EC50 [5] | Maximum % activity (with co-corrector) [6] | EC50 [7] | Maximum % activity (with co-corrector) (with co-corrector (2 μM)) | Emax (without co-corrector)
COc1cc(C(F)(F)F)ccc1CN[C@@H]1[C@@H](C(C)(C)C)[C@H](C(=O)O)N(C(=O)[C@@H]2CCCCO2)[C@@H]1c1ccccc1 [II-82] | 1000 to 10000 nM | 1000 to 10000 nM | +++ (≥350) | 100 to 200% |  |  |  |  |  | 
COc1ncc(C2CCC2)cc1CN[C@H]1[C@H](C(C)(C)C)[C@@H](C(=O)O)N(C(=O)C2C3CCCC32)[C@H]1c1cccnc1N(C)C (stereo partly drawn) [II-518] |  |  |  |  | 100 to 200% | 1000 to 10000 nM | +++ (≥350) | 1000 to 10000 nM |  | 
COc1cc(C(F)(F)F)cc(N[C@@H]2[C@@H](C(C)(C)C)[C@H](C(=O)O)N(C(=O)C3CCCCC3)[C@@H]2c2ccccc2)n1 (racemic) [Example 2, rac-(2R,3R,4R,5R)-3-tert-butyl-1-(cyclohexanecarbonyl)-4-{[6-methoxy-4-(trifluoromethyl)pyridin-2-yl]amino}-5-phenylpyrrolidine-2-carboxylic acid] |  |  |  |  |  | 1000 to 10000 nM |  | 1000 to 10000 nM | +++ (≥350) | < 100%
COCc1ccc(OC)c(CN[C@H]2[C@H](C(C)(C)C)[C@@H](C(=O)O)N(C(=O)C3CCCCC3)[C@H]2c2ccccc2)c1 [II-242] | 1000 to 10000 nM | 1000 to 10000 nM | +++ (≥350) | 100 to 200% |  |  |  |  |  | 
COc1ccc(C2CC2)cc1CN[C@H]1[C@H](C(C)(C)C)[C@@H](C(=O)O)N(C(=O)C2CCCCC2)[C@H]1c1ccccc1 [II-352] |  |  |  |  | > 200% | 1000 to 10000 nM | +++ (≥350) | < 1000 nM |  | 
COc1ccc(C(C)(C)C)cc1CN[C@H]1[C@H](C(C)(C)C)[C@@H](C(=O)O)N(C(=O)C2CCCCO2)[C@H]1c1ccccc1C(C)C (relative stereo) [Example 62, (2S,3S,4S,5S)-3-tert-butyl-4-{[(5-tert-butyl-2-methoxyphenyl)methyl]amino}-1-[(2S*)-oxane-2-carbonyl]-5-[2-(propan-2-yl)phenyl]pyrrolidine-2-carboxylic acid] |  |  |  |  |  | < 1000 nM |  | < 1000 nM | +++ (≥350) | > 200%
COc1ncc(C2CCC2)cc1CN[C@H]1[C@H](C(C)(C)C)[C@@H](C(=O)O)N(C(=O)C2CCCCC2)[C@H]1c1cccnc1OC [Example I-237] |  |  |  |  |  | 1000 to 10000 nM |  | 1000 to 10000 nM | +++ (≥350) | 100 to 200%
COc1ccc(C(C)(C)C)cc1CN[C@H]1[C@H](C(C)(C)C)[C@@H](C(=O)O)N(C(=O)C2CCCCC2)[C@H]1c1ccccc1C(C)C [Example I-185] |  |  |  |  |  | < 1000 nM |  | < 1000 nM | +++ (≥350) | > 200%
COc1ncc(C(F)(F)F)cc1CN[C@H]1[C@H](C(C)(C)C)[C@@H](C(=O)O)N(C(=O)C2CCCC(F)(F)C2)[C@H]1c1ccccc1 (stereo partly drawn) [Example I-183] |  |  |  |  |  | 1000 to 10000 nM |  | < 1000 nM | +++ (≥350) | 100 to 200%
COc1ccc(C(C)(C)C)cc1CN[C@H]1[C@H](C(C)(C)C)[C@@H](C(=O)O)N(C(=O)Cc2cccc(F)c2)[C@H]1c1ccccc1 [II-199] | 1000 to 10000 nM | 1000 to 10000 nM | +++ (≥350) | > 200% |  |  |  |  |  | 
COc1ccc(F)cc1CN[C@@H]1[C@@H](C(C)(C)C)[C@H](C(=O)O)N(C(=O)OC(C)C)[C@@H]1c1ccccc1 (racemic) [II-42] | 1000 to 10000 nM | 1000 to 10000 nM | +++ (≥350) | 100 to 200% |  |  |  |  |  | 
COc1ccc(C(C)(C)C)cc1CN[C@H]1[C@H](C(C)(C)C)[C@@H](C(=O)O)N(C(=O)c2cnn(C(C)(C)C)c2C#N)[C@H]1c1ccccc1 [II-355] |  |  |  |  | 100 to 200% | 1000 to 10000 nM | +++ (≥350) | < 1000 nM |  | 
COc1ncc(C(C)(C)C)cc1CN[C@H]1[C@H](C(C)(C)C)[C@@H](C(=O)O)N(C(=O)C2CCCCC2)[C@H]1c1ccccc1 [Example 27, (2S,3S,4S,5S)-3-tert-butyl-4-{[(5-tert-butyl-2-methoxypyridin-3-yl)methyl]amino}-1-(cyclohexanecarbonyl)-5-phenylpyrrolidine-2-carboxylic acid] |  |  |  |  |  | 1000 to 10000 nM |  | 1000 to 10000 nM | +++ (≥350) | > 200%
COc1cc(C(F)(F)F)ccc1CN[C@H]1[C@H](C(C)(C)C)[C@@H](C(=O)O)N(C(=O)[C@@H]2CCCCO2)[C@H]1c1cccnc1OC [II-92] | 1000 to 10000 nM | 1000 to 10000 nM | +++ (≥350) | 100 to 200% |  |  |  |  |  | 
CCC(CC)Cc1cnc(OC)c(CN[C@H]2[C@H](C(C)(C)C)[C@@H](C(=O)O)N(C(=O)C3CCCCC3)[C@H]2c2ccccc2)c1 [Example I-74] |  |  |  |  |  | < 1000 nM |  | < 1000 nM | +++ (≥350) | > 200%
COc1nc(C(C)(C)C)ccc1CN[C@H]1[C@H](C(C)(C)C)[C@@H](C(=O)O)N(C(=O)C2CCCCC2)[C@H]1c1cccnc1OC [Example I-230] |  |  |  |  |  | 1000 to 10000 nM |  | 1000 to 10000 nM | +++ (≥350) | 100 to 200%
COc1ccc(C(F)(F)F)cc1CN[C@H]1[C@H](C(C)(C)C)[C@@H](C(=O)O)N(C(=O)[C@@H]2CCCO2)[C@H]1c1ccccc1C(C)C [II-595] |  |  |  |  | > 200% | < 1000 nM | +++ (≥350) | < 1000 nM |  | 
COc1ccc([Si](C)(C)C)cc1CN[C@H]1[C@H](C(C)(C)C)[C@@H](C(=O)O)N(C(=O)C2CCCCC2)[C@H]1c1ccccc1 [Example I-171] |  |  |  |  |  | < 1000 nM |  | < 1000 nM |  | 
COc1ccc(C(C)(C)C)cc1CN[C@H]1[C@H](C(C)(C)C)[C@@H](C(=O)O)N(C(=O)c2cc(C)n(C)n2)[C@H]1c1ccccc1 [II-445] |  |  |  |  | 100 to 200% | 1000 to 10000 nM | +++ (≥350) | 1000 to 10000 nM |  | 
CCc1c(C(=O)N2[C@H](C(=O)O)[C@@H](C(C)(C)C)[C@H](NCc3cc(C(C)(C)C)ccc3OC)[C@@H]2c2ccccc2)c(C)nn1-c1ccc(F)cc1 [II-359] |  |  |  |  | > 200% | 1000 to 10000 nM | +++ (≥350) | 1000 to 10000 nM |  | 
